# Experimental data reported in ChEMBL document CHEMBL1201862, “PubChem BioAssay data set” (2004).
# Calls of active or inactive are those of the source.
# What was measured:
# [1] = Luminescence Cell-Based Dose Confirmation HTS to Identify Activators of 5'UTR Stem-Loop Driven Alpha-Synuclein mRNA Translation in H4 Neuroglioblastoma Cells. [Related pubchem assays: 1829 (Project Summary), 1814 (Primary HTS)]; type: functional
# [2] = Luminescence Cell-Based Dose Response HTS to Identify Activators of Luciferase Translation or Activity in H4 […] Cells. [Related pubchem assays: 1829 (Project Summary), 1814 (Primary HTS)]; type: functional
# H4 = assay: Luminescence Cell-Based Dose Response HTS to Identify Activators of 5'UTR Stem-Loop Driven Prion Protein mRNA Translation in H4 Neuroglioblastoma Cells. [Related pubchem assays: 1829 (Project Summary), 1814 (Primary HTS)]; type: functional; conditions: Homo sapiens
# [3] = biological target: T1, Heat shock factor protein 1 (Mus musculus, UniProt P38532); assay: decrease of HSF1-responsive luciferase luminescence – cell-based, NIH3T3, dose retest, confirmation (AID 2382); type: functional;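 note: NIH3T3 fibroblasts with HSF1-driven luciferase reporter stressed by proteasome inhibitor MG132; luminescence from HSF1-driven luciferase expression after 8 hours of MG132 stress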
# T1 sequence (P38532 whole entry): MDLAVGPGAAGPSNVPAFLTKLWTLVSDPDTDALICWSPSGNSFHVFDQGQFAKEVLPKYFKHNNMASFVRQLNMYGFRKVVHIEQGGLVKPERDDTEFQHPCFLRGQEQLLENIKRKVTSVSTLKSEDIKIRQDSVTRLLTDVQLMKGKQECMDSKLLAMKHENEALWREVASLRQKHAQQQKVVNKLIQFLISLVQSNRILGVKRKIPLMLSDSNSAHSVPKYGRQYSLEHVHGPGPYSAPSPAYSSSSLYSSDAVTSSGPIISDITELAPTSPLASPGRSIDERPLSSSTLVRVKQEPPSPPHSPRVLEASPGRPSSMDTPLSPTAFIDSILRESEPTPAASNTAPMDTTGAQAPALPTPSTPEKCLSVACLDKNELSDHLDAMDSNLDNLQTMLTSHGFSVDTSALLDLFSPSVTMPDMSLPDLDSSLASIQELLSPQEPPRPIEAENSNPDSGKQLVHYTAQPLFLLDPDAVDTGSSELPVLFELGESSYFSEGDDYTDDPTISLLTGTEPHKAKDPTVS
# [4] = biological target: G-protein coupled receptor 55 (Homo sapiens, UniProt Q9Y2T6); assay: inhibition of LPI-stimulated GPR55 beta-arrestin translocation – imaging, U2OS, beta-arrestin-GFP, LPI agonist, primary screen (AID 2013); type: functional;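 note: antagonist potency measured as reduced agonist-driven arrestin aggregation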
# [5] = biological target: T2, Microphthalmia-associated transcription factor (Homo sapiens, UniProt O75030); assay: reducers of TRPM1 reporter luminescence, concentration series – cell-based, SK-MEL-5, cherry-picked, set 3, MITF inhibitor project, dose response (AID 493073); type: functional;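 note: SK-MEL-5 melanoma cells with luciferase driven by the MITF target TRPM1 promoter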
# T2 sequence (O75030 whole entry): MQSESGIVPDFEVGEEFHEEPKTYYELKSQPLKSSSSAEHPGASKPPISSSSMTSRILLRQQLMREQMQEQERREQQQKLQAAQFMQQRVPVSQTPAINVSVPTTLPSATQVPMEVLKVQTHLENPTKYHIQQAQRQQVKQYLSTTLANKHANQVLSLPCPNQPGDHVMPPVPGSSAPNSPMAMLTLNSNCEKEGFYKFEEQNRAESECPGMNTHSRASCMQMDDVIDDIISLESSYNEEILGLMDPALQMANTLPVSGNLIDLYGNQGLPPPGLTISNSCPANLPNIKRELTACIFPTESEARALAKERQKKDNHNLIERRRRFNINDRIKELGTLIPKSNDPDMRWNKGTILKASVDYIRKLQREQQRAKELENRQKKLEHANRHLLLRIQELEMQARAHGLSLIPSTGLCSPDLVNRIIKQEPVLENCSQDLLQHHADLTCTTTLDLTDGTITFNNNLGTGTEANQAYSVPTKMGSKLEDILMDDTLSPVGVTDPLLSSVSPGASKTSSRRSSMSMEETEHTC
# [6] = biological target: T3, High affinity choline transporter 1 (Homo sapiens, UniProt Q9GZV3); assay: human choline transporter blockers, potency – cell-based, 5-point CRC, membrane potential dye, dose response (AID 504840); type: functional
# T3 sequence (Q9GZV3 whole entry): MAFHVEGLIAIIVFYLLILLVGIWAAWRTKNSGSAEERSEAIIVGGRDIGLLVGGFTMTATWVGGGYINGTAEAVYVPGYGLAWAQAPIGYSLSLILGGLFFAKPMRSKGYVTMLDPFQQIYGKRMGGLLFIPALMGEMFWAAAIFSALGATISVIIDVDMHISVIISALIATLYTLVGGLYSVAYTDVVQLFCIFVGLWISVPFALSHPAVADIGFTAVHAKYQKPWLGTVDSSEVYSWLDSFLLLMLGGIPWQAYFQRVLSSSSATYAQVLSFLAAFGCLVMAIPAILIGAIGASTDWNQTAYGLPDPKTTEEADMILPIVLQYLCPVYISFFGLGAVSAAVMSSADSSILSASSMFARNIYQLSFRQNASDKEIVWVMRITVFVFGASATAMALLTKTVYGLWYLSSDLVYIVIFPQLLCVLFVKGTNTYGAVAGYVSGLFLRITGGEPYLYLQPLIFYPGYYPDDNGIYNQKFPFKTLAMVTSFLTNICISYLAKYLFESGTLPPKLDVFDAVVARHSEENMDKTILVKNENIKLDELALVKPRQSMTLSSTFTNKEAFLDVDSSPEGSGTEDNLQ
# A-375 = assay: proliferation inhibition in MITF-low A375 cells – cell-based, cherry-pick samples, set 2, counter-screen for MITF modulator project, dose response (AID 540335); type: functional; conditions: Homo sapiens
# [7] = Fluorescence-based cell-based high throughput dose response assay for inhibitors of the interaction of nucleotide-binding oligomerization domain containing 2 (NOD2) and the receptor-interacting serine-threonine kinase 2 (RIPK2).; type: functional; conditions: Homo sapiens
# Galanin receptor type 3 = Galanin receptor type 3 (Homo sapiens, UniProt O60755); assay: Fluorescence-based cell-based primary high throughput dose response assay to identify antagonists of the Galanin Receptor 3 (GalR3).; type: functional
# cells = type: functional, cell-based; conditions: HEK-CNG
# Paired box protein Pax-8 = Paired box protein Pax-8 (Homo sapiens, UniProt Q06710); assay: PAX8 transcriptional activity inhibition in RMG-I – RMG-I cells, luciferase, cherry-pick, dose response (AID 687027); type: functional, cell-based;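 note: luciferase reporter driven by Pax8 target thyroperoxidase promoter measured by SteadyGlo luminescence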
# [8] = biological target: DNA dC->dU-editing enzyme APOBEC-3G (Homo sapiens, UniProt Q9HC16); assay: Dose Response confirmation of small molecule APOBEC3G DNA Deaminase Inhibitors via a fluorescence-based single-stranded DNA deaminase assay. [Related pubchem assays (depositor defined):AID493012, AID493028]; type: functional
# HEK293 [9] = assay: inhibition of NOD1-driven NF-kB reporter – cell-based, luminescence, uHTS, primary screen (AID 1578); type: functional; conditions: Homo sapiens
# HEK293 [10] = assay: cells; type: functional, cell-based; conditions: Homo sapiens
# HEK293 [11] = assay: cells; type: functional, cell-based; conditions: Homo sapiens; remark: listed apart in the source
# [12] = biological target: T4, Nucleotide-binding oligomerization domain-containing protein 2 (Homo sapiens, UniProt Q9HC29); assay: inhibition of NOD2-driven NF-kB reporter – cell-based, luminescence, uHTS, HEK293 (AID 1566); type: functional
# HEK293 [13] = assay: NOD2 signaling inhibitors in MDP-stimulated cells, cell-based, uHTS, luminescence (AID 2001); type: functional; conditions: Homo sapiens
# HEK293 [14] = assay: cells; type: functional, cell-based; conditions: Homo sapiens; remark: listed apart in the source
# Tumor necrosis factor = Tumor necrosis factor (Homo sapiens, UniProt P01375); assay: analog potency on TNFa NF-kB signaling – cell-based, revised, SAR follow-up (AID 2337); type: functional
# [15] = biological target: T5, Nucleotide-binding oligomerization domain-containing protein 1 (Homo sapiens, UniProt Q9Y239); assay: blockers of NOD1 pathway activity – revised, SAR follow-up (AID 2333); type: functional
# T5 sequence (Q9Y239 whole entry): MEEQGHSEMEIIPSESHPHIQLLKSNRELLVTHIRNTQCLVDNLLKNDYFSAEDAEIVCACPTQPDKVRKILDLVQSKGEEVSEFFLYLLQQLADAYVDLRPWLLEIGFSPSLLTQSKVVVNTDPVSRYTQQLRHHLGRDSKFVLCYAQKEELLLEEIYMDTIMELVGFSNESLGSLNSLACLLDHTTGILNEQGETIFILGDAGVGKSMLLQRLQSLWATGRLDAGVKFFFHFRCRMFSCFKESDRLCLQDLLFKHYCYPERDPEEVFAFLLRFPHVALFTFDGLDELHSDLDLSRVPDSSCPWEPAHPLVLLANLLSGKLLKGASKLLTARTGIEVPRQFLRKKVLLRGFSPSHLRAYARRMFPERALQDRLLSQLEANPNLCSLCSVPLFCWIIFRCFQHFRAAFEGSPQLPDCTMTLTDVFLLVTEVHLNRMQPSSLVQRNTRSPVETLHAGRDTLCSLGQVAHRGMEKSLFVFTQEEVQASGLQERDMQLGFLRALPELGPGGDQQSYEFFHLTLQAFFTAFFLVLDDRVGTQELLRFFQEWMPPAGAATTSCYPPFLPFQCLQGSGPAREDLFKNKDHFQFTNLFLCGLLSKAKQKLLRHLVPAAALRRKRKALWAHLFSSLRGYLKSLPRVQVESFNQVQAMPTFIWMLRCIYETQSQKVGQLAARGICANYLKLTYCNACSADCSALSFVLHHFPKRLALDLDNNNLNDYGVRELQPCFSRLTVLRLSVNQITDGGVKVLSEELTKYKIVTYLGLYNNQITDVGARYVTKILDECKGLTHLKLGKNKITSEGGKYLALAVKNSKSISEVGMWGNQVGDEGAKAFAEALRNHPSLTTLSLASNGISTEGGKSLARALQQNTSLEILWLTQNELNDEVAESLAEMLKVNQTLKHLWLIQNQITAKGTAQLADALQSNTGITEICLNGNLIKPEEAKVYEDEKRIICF
# [16] = biological target: T4, Nucleotide-binding oligomerization domain-containing protein 2; assay: PubChem AID 2334; type: functional
# HEK293 [17] = assay: cells; conditions: Homo sapiens
# T4 sequence (Q9HC29 whole entry, the tested form may be a part): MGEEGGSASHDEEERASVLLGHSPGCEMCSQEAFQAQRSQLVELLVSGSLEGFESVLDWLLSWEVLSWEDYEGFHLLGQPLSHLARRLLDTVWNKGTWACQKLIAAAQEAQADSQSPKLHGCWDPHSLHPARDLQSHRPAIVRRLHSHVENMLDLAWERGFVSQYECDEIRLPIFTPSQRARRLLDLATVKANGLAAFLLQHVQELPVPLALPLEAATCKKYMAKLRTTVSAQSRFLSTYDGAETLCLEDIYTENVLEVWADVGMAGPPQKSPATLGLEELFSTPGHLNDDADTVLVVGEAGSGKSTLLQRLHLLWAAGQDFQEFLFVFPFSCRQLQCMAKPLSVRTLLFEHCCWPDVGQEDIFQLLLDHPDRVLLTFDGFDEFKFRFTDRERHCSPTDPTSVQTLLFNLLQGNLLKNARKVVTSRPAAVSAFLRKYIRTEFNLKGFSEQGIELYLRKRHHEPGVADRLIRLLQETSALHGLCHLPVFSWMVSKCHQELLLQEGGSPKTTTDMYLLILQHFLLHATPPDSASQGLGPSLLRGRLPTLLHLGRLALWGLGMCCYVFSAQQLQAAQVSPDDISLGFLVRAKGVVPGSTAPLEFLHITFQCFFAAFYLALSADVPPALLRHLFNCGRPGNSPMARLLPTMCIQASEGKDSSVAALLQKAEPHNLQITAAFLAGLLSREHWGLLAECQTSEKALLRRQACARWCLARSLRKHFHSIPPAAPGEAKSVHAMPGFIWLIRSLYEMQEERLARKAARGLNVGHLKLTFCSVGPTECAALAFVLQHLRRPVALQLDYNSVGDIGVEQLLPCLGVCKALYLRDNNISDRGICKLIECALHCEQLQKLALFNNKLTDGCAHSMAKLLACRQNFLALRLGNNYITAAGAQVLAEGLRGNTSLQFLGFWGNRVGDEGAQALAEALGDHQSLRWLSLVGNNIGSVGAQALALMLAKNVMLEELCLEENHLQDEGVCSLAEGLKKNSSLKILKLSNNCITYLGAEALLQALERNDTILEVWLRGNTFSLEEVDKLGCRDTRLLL
# G-protein coupled receptor 55, sequence (Q9Y2T6 whole entry): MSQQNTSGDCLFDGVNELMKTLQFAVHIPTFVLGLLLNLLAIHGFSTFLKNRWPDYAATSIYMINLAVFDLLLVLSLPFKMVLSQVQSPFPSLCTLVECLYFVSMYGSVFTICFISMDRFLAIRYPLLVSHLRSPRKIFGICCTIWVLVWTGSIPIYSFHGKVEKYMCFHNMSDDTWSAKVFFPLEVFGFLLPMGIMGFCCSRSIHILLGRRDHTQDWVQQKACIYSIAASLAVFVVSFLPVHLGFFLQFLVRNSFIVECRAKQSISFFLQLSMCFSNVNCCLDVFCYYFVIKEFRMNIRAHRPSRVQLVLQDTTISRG
# Galanin receptor type 3, sequence (O60755 whole entry): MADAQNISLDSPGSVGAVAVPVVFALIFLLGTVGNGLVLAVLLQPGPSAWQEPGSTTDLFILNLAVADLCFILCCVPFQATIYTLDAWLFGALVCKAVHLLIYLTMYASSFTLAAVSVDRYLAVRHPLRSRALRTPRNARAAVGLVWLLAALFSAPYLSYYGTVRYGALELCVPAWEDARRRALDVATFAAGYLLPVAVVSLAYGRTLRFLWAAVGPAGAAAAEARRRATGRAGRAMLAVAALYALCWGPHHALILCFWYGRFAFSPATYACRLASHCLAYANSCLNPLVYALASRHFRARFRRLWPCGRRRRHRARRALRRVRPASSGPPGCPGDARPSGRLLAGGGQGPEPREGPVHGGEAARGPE
# Tumor necrosis factor, sequence (P01375 whole entry, the tested form may be a part): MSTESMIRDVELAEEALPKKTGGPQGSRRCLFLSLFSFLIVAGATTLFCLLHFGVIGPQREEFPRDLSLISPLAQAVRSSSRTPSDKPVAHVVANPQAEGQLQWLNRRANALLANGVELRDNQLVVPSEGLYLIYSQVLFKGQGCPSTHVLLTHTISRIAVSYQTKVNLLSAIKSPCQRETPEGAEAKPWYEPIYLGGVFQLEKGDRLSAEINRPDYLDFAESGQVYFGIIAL
# Paired box protein Pax-8, sequence (Q06710 whole entry): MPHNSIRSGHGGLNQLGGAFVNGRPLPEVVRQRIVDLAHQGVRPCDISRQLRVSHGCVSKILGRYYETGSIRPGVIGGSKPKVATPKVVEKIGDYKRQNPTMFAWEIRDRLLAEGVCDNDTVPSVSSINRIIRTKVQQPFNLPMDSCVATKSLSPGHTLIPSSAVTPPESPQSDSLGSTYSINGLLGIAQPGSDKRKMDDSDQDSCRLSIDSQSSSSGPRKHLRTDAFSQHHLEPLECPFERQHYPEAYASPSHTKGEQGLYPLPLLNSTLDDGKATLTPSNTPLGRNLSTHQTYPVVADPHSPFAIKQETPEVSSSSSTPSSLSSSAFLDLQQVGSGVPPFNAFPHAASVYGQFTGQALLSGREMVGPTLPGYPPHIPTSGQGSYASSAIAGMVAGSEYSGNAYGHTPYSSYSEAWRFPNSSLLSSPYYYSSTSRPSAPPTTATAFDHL
# DNA dC->dU-editing enzyme APOBEC-3G, sequence (Q9HC16 whole entry): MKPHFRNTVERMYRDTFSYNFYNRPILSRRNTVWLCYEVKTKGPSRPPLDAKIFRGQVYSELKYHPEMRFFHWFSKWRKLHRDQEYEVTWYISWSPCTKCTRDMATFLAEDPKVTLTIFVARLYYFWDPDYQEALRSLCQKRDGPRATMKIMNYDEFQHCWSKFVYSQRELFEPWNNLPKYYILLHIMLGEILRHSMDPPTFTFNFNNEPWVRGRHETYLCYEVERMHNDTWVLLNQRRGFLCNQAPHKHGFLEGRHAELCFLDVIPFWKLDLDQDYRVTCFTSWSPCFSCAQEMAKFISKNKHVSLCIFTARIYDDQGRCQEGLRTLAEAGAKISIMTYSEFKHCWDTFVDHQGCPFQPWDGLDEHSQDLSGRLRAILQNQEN
compound,measurement,setting,value
CCCCn1c(=O)[nH]c(=O)c2c1nc(Cn1ncc(Cl)c(Cl)c1=O)n2CCC,EC50,[1],> 120 µM (not active)
same,EC50,[2],> 120 µM (not active)
same,EC50,H4,> 120 µM (not active)
same,EC50,[3],2.89 µM (active)
same,IC50,[4],6.1 µM (active)
same,AC50,[5],8.12 µM (active)
same,IC50,[6],12.6 µM (active)
same,AC50,A-375,28.9 µM (active)
same,IC50,[7],2.15 µM (active)
same,IC50,Galanin receptor type 3,> 3.32 µM (active)
same,EC50,cells,> 29.9 µM (inactive)
same,AC50,Paired box protein Pax-8,6.68 µM (active)
CC(=O)c1sc2nsc(SCCN3CCOCC3)c2c1N,IC50,[8],34.4 µM (active)
Cc1c(C(=O)OCC(=O)c2c(N)n(CC(C)C)c(=O)n(C)c2=O)oc2ccccc12,EC50,HEK293 [9],15.7 µM (active)
same,IC50,HEK293 [10],> 20 µM (inactive)
same,IC50,HEK293 [11],> 20 µM (inactive)
same,EC50,[12],> 20 µM (inactive)
same,IC50,HEK293 [13],19 µM (inactive)
same,IC50,HEK293 [14],> 20 µM (inactive)
same,IC50,Tumor necrosis factor,> 20 µM (inactive)
same,IC50,[15],17.4 µM (active)
same,IC50,[16],14.9 µM (active)
same,IC50,HEK293 [17],> 20 µM (inactive)
